The experiment deals with Escherichia coli. The experiment in a line: Inhibitory concentration of compound was determined against Escherichia coli in the absence of alkynyl amino acid 1. Format: functional, organism-based.

≈ marks a conversion by molar mass, not a printed value.

In general, IC50 refers to the concentration at which inhibition is half-maximal. A lower IC50 goes with greater potency. `O=C(N[C@H](CO)[C@H](O)c1ccc([N+](=O)[O-])cc1)C(Cl)Cl` [CHLORAMPHENICOL] registered an IC50 of 5 µg/mL (≈ 15.5 µM).

These data come from ChEMBL document CHEMBL1142027, “In vivo incorporation of an alkyne into proteins in Escherichia coli” (Bioorg Med Chem Lett, 2005).
